From US20230391868A1, “COMPOSITIONS FOR AND METHODS OF TREATING CANCER” (The George Washington University, priority 2022, published 2023)

How the values were obtained:
SM1 melanoma tumors [1] = assay: SM1 melanoma tumor growth in vivo; set-up: species or system mouse; conditions: SM1-bearing C57/Bl6 mice, NextA 20 mg/kg intraperitoneally, anti-CD47 100 μg intratumorally, every other day, vs vehicle control
Description: Animal experiments were performed in accordance with protocol A354 approved by the Institutional Care and Use Committee (IACUC) at The George Washington University. Female C57BL/6 mice (4-6 weeks old) were purchased from Charles River Laboratories (Wilmington, Massachusetts, USA). Mice were injected subcutaneously in their right flank with 10^6 in vivo passaged SM1 melanoma cells suspended in 100 μL of PBS (Corning, 21-040-CV) at day 0. Cages were randomly assigned to different treatment groups, and mice were treated intraperitoneally with 100 μL of vehicle control or NextA at 20 mg/kg every other day when tumors became palpable, which was a week after tumor implantation.
Six days after the first NextA treatment, mice were also treated intratumorally with 100 μg of αCD47 every two days (clone miap301, BE0270, BioXCell, Lebanon, NH, USA) until the end of the study. Tumor measurements were taken every other day using caliper measurements and calculated using the formula L×W^2/2. All animals were routinely monitored for early signs of toxicity. […]
First, C57/Bl6 mice were inoculated with SM1 melanoma cells (n=15 mice per group). […] The concentrations of NextA and anti-CD47 were determined by performing drug and antibody titrations. Tumor growth was monitored every other day from when the tumors became palpable until the experimental endpoint.

SM1 melanoma tumors [2] = assay: Immunophenotyping of SM1 tumors by flow cytometry; format: in vivo, mouse
Description: Flow Cytometry: Immunophenotyping of tumors by flow cytometry was performed following the protocol previously described (Knox T, et al. (2019) Sci. Rep. 9:6136; Banik D, et al. (2020) Cancer Res. 80:3649-3662). When control tumors reached the endpoint (2000 mm^3), mice were euthanized following the IACUC protocol at The George Washington University, and tumors were processed into a single-cell suspension for analysis by flow cytometry with tumor digestion buffer containing collagenases I and IV, hyaluronidase V, and DNAse I. Dead cells were discriminated using LIVE/DEAD™ Fixable Aqua Dead Cell Stain Kit (ThermoFisher Scientific, L34965). The antibodies used to stain cell surface markers were all purchased from BioLegend (San Diego, CA) unless otherwise mentioned. Myeloid cell surface markers include: APC/Fire 750 anti-mouse CD45.2 (clone 104), Brilliant Violet 421 anti-mouse/human CD11b (clone M1/70), Brilliant Violet 605 anti-mouse Ly-6G/Ly-6C (Gr-1) (clone RB6-8C5), Brilliant Violet 785 anti-mouse F4/80 (clone BM8), APC anti-mouse CD80 (clone 16-10A1), PerCP/Cyanine5.5 anti-mouse H-2Kd (clone SF1-1.1), PE/Cy7 anti-mouse CD206 (MMR) (clone C068C2), PE anti-mouse CD163 (clone 5B11), and Alexa Fluor 700 anti-mouse CD3 (clone 17A2). T cell surface markers are as follows: Brilliant Violet 785 anti-mouse CD45.2 (clone 104), PerCP/Cy5.5 anti-mouse CD3 (clone 17A2), APC/Fire 750 anti-mouse CD8a (clone 53-6.7), Brilliant Violet 650 anti-mouse CD4 (clone GK1.5), Brilliant Violet 605 anti-mouse CD44 (clone IM7), PE anti-mouse CD62L (clone MEL-14), and Pacific Blue anti-mouse CD25 (clone PC61). NK cell surface markers are as follows: Brilliant Violet 785 anti-mouse CD45.2 (clone 104), PerCP/Cy5.5 anti-mouse CD3 (clone 17A2), PE/Cy7 anti-mouse CD49b (pan-NK cells) (clone DX5), Brilliant Violet 421 anti-mouse CD16/32 (clone 93), Alexa Fluor 700 anti-mouse CD8a (clone 53-6.7), and PE anti-mouse 4-1BB (clone 17B5). Multicolor flow data was acquired using a BD FACS Celesta Cell Analyzer, and data analysis was performed with FlowJo software version 10.3. The gating strategies for each immune cell panel can be found in FIG. 11A-FIG. 11C.
To evaluate the effects of the single arms and combination therapy, the tumors were harvested at the experimental endpoint and immunophenotyping was performed by flow cytometry. Overall, the combination of NextA and anti-CD47 had immunomodulatory effects and enhanced immune cell infiltration in the TME. […] The different macrophage populations in the tumors were evaluated (FIG. 6B).

Question: With `CCCCN(Cc1ccc(C(=O)NO)cc1)C(=O)Nc1ccccc1` [NextA, Nexturastat A] as the molecule, how does the tumor growth (SM1 melanoma tumors [1]) read?
Answer: The tumor growth was “moderately decreased tumor growth”.

Question: What about the tumor growth (SM1 melanoma tumors [1]; listed as Nexturastat A) of the same molecule?
Answer: The tumor growth was “enhanced the antitumor efficacy of anti-CD47”.

Question: What about the M1/M2 ratio (SM1 melanoma tumors [2]; SM1 tumors) of the same molecule?
Answer: Its M1/M2 ratio is “increased”.

Question: What about the “M1-like macrophages (CD80+, H2Kd+, F4/80+)” value (SM1 melanoma tumors [2]; SM1 tumors (FIG. 6B)) of the same molecule?
Answer: Its value is “significantly increased”.

Question: What about the “M2-like macrophages (CD206+, CD163+, F4/80+)” value (SM1 melanoma tumors [2]; SM1 tumors (FIG. 6B)) of the same molecule?
Answer: Its value is “significantly decreased”.

Question: And the “CD3 T cell infiltration” value (SM1 melanoma tumors [2]; SM1 tumors (FIG. 6C))?
Answer: Its value is “increased”.

Question: And the “total NKT, CD8+ NKT, and CD137+ CD8+ NKT cells in the TME” value (SM1 melanoma tumors [2]; SM1 tumors (FIG. 6J))?
Answer: The value was “significantly increased”.
